In patent US12201643B2, “Mechanochemical dynamic for focal cancer treatment” (THE BOARD OF TRUSTEES OF THE UNIVERSITY OF ILLINOIS, priority 2021, dated 2025):

Assays:
[1] = test system: B16F10 mouse skin melanoma cells; format: cell-based
From the text: (§1) B16F10 mouse skin melanoma cells were maintained in DMEM (Gibco) supplemented with 10% fetal bovine serum (FBS, Corning), penicillin and streptomycin (Thermo Fisher). B16F10 cells were a generous gift from Dr. Edward Roy at the University of Illinois at Urbana-Champaign. E0771 mouse breast cancer cells (CH3 BioSystems) were maintained in RPMI-1640 (Gibco) supplemented with 10% FBS (Corning), penicillin and streptomycin (Thermo Fisher). For free-radical challenge experiments, 0.05% trypsin dissociated cells were counted and 1×10^4 cells per well were seeded in cell culture-treated 6 well plates (Thermo Fisher) 24 hours before the start of the experiment. […] Cells were then incubated up to 72 hours without media change and counted every 24 hours. […] Staining solution was then replaced by PBS and the cells were imaged on an Olympus inverted fluorescence microscope with 4× objective and FITC filter set. […] Live cells positively stained by Calcein-AM were counted using FIJI (NIH) and averaged over 4 counting fields per well at each time point (FIG. 12). For each image, only the green channel was analyzed. […] Using “Analyze Particles,” the distinct white areas from size 20 (to exclude small artifacts and debris) to size infinity were counted. Cell counts were then compiled and analyzed in Microsoft Excel. […]

[2] = test system: E0771 mouse breast cancer cells; format: cell-based
From the text: as §1

[3] = Arrhenius equation; cited from earlier work

Structure (SMILES)	lethal dosage (positive control) [1] [µM]	lethal dosage (positive control) [2] [µM]	activation energy Ea of azo group decomposition [3] [kcal/mol]	pre-exponential factor A of azo group decomposition [3] [s⁻¹]
OO [H2O2, hydrogen peroxide]	~50	~30		
CC(C#N)(CCC(=O)O)N=NC(C)(C#N)CCC(=O)O (stereo not shown) [ACVA, 4,4′-azobis (4-cyanovaleric acid)]			31.76	6.21e+15
